Measured values reported in US20050202010A1, “Method of treatment and bioassay involving macrophage migration inhibitory factor (MIF) as cardiac-derived myocardial depressant factor” (priority 2003, published 2005).

Tests used:
LPS stimulated monocytes = conditions: cited from earlier work
[1] = test system: wild type mice challenged with LPS; assay: Serum MIF levels (ELISA) after LPS challenge, Enbrel pre-treatment; type: in vivo, mouse; conditions: wild type mice pre-treated (60 minutes) with Enbrel, LPS 4 mg/kg
Description: (§1) Mice were injected intraperitoneally with 4 mg/kg E. coli 0111:B4 LPS (Sigma-Aldrich Corp., St. Louis, Mo.) and sacrificed by CO2 asphyxiation and subsequent cervical dislocation. Uninjected mice were used as controls. The two anti-MIF antibodies (III.D.9 and XIV.15.5, gift of Cytokine PharmaSciences, Inc., King of Prussia, Pa.) and their isotype control (HB-49, gift from Cytokine PharmaSciences, Inc.) were injected (100 μg in […]) intraperitoneally 90 minutes before the LPS challenge in the echocardiogram studies. […]
Determination of serum MIF levels. Sera from six mice were assayed for mouse MIF using the Chemikine™ Rat/Mouse macrophage inhibitory factor (MIF) EIA kit (Chemicon International, Inc., Temecula, Calif.) according to the manufacturer's instructions. Briefly, 5 μl of standards, samples, or reaction buffer (blank) were added to each well in duplicate. Diluted MIF-HRP antibody conjugate was added to each well (100 μl) and allowed to incubate for 2 hours at room temperature. Wells were then washed five times, and TMB substrate (100 μl) was allowed to incubate in the dark for 30 minutes at room temperature. The stop reagent was added to each well, gently mixed, and the ELISA was read on an ELISA plate reader (EL 312e Microplate Reader, Bio-Tek Instruments, Winooski, Vt.) at 450 nm (630 nm background) within 30 minutes of completion of the assay. […]

[2] = test system: wild type mice challenged with LPS; assay: Tissue MIF release (western, immunohistochemistry) after LPS challenge, Enbrel pre-treatment; type: in vivo, mouse
Description: as §1, with “Louis,” for “Mice were injected intraperitoneally with 4 mg/kg E. coli 0111:B4 LPS (Sigma-Aldrich Corp., St. Louis,”
Protein Extraction and Western Blotting. […] Protein concentration was quantified using the Bio-Rad Protein Assay (Hercules, Calif.) and 50 μg of protein diluted in Laemmeli sample buffer (Bio-Rad) was added in a 1:1 ratio to a final volume of 10 μl and resolved on a 12% SDS polyacrylamide gel under reducing conditions. Prestained SDS-PAGE standards (Kaleidoscope Broad range, Bio-Rad Laboratories, Inc., Hercules, Calif.) were run (10 μl/lane) with each gel in order to determine the approximate M.W. of detected bands. […] The membrane was then developed for 5 minutes with 5 ml of ECL reagents (SuperSignal West Pico, Pierce, Rockford, Ill.), and the resulting chemiluminescent reaction was detected by Kodak X-OMAT AR Film (Eastman Kodak Co., Rochester, N.Y.). […]

| Molecule | effect on MIF secretion (LPS stimulated monocytes) | further results |
| --- | --- | --- |
| CC[C@@]1([C@@H]2O[C@@H]([C@H]3O[C@@](O)(CO)[C@H](C)C[C@@H]3C)C[C@@H]2C)CC[C@H]([C@]2(C)CC[C@]3(C[C@H](O)[C@@H](C)[C@@H]([C@@H](C)[C@@H](OC)[C@H](C)C(=O)O)O3)O2)O1 [monensin] | do not inhibit the secretion of MIF | – |
| CCCN(CCC)S(=O)(=O)c1ccc(C(=O)O)cc1 [probenicide] | MIF secretion did not occur | – |
| C[C@H]1CCC/C=C/[C@@H]2C[C@H](O)C[C@H]2[C@H](O)/C=C/C(=O)O1 [brefelding A] | do not inhibit the secretion of MIF | – |
| Enbrel® | – | Maximum serum MIF levels [1]: ~2.3 fold baseline; time of maximum serum MIF levels [1]: 24 h; tissue release of MIF after LPS challenge ([2]; Enbrel given just immediately prior to or after LPS instead of 90 minutes prior (data not shown)): occurred sporatically; release of MIF from cardiac, liver and spleen tissue after LPS challenge ([2]; wild type mice pre-treated with Enbrel, western and immunohistochemistry): did not occur at any time |
| COc1ccc(Cl)cc1C(=O)NCCc1ccc(S(=O)(=O)NC(=O)NC2CCCCC2)cc1 [glyburide] | MIF secretion did not occur | – |
